Laboratory results reported in patent EP0159881A2, “23-C-substituted mycaminosyl tylonolide” (ZAIDAN HOJIN BISEIBUTSU KAGAKU KENKYU KAI, priority 1984, dated 1985).
Converted amounts (≈) assume the structure as drawn. Read-outs that look alike come from different tables or passages of the source.

Tests used:
Assay in all cases: minimum inhibitory concentration (MIC), antimicrobial activity
Assay type in all cases: cell-based
M. luteus PCI 1001 = test system: M. luteus PCI 1001
Excerpt: (§1) Concerning the antimicrobial activity of the compounds of this invention of the formula (I), minimum effective inhibitory concentrations (MIC) of the compounds are shown in the following Table.

B. Subtilis NRRL B-558 = test system: B. Subtilis NRRL B-558
Excerpt: as §1

Sal.entiritidis 1891 = test system: Sal.entiritidis 1891
Excerpt: as §1

Staph. aureus Smith = test system: Staph. aureus Smith
Excerpt: as §1

Kl. pnueroniae PCI-602 = test system: Kl. pnueroniae PCI-602
Excerpt: as §1

Pseud. aeruginosa A3 = test system: Pseud. aeruginosa A3
Excerpt: as §1

[1] = Micrococcus luteus, PCI1001, read-out: MIC
[2] = Bacillus subtilis, NRRLB558, read-out: MIC
[3] = Staphylococcus aureus, read-out: MIC
[4] = Pseudomonas aeruginosa, A3, Pseud. aeruginosa A3, read-out: MIC

Row | Molecule | MIC (M. luteus PCI 1001) [µg/mL] | MIC (B. Subtilis NRRL B-558) [µg/mL] | MIC (Sal.entiritidis 1891) [µg/mL] | MIC (Staph. aureus Smith) [µg/mL] | MIC (Kl. pnueroniae PCI-602) [µg/mL] | MIC (Pseud. aeruginosa A3; Pseud. aeruginosa A3) [µg/mL] | MIC (M. luteus PCI 1001; [1]) [µg/mL] | MIC (B. Subtilis NRRL B-558; [2]) [µg/mL] | MIC (Sal.entiritidis 1891; read-out: MIC) [µg/mL] | MIC (Staph. aureus Smith; [3]) [µg/mL] | MIC (Kl. pnueroniae PCI-602; read-out: MIC) [µg/mL] | MIC (Pseud. aeruginosa A3; [4]) [µg/mL]
1 | 23-C-methylmycaminosyl tylonolide diethylacetal [2(2)] | <0.2 | 0.78 | 3.12 | 1.56 | 3.12 | 12.5 | – | – | – | – | – | –
2 | CCC1OC(=O)CC(O)C(C)C(OC2OC(C)C(O)C(N(C)C)C2O)C(CC=O)CC(C)C(=O)/C=C/C(C)=C/C1C(C)O (single isomer, unassigned) [1(3), 23-C-methylmycaminosyl tylonolide] | – | – | – | – | – | – | < 0.2 | 0.78 (≈ 1.27 µM) | 3.12 (≈ 5.1 µM) | 1.56 (≈ 2.55 µM) | 3.12 (≈ 5.1 µM) | 12.5 (≈ 20.4 µM)
3 | CCC(O)C1/C=C(C)/C=C/C(=O)C(C)CC(CC=O)C(OC2OC(C)C(O)C(N(C)C)C2O)C(C)C(O)CC(=O)OC1CC (single isomer, unassigned) [4(2), 23-C-ethylmycaminosyl tylonolide] | – | – | – | – | – | – | < 0.2 | 0.39 (≈ 0.623 µM) | 3.12 (≈ 4.99 µM) | 0.78 (≈ 1.25 µM) | 6.25 (≈ 9.99 µM) | 6.25 (≈ 9.99 µM)
4 | C=CCC(O)C1/C=C(C)/C=C/C(=O)C(C)CC(CC=O)C(OC2OC(C)C(O)C(N(C)C)C2O)C(C)C(O)CC(=O)OC1CC (single isomer, unassigned) [8"F, 23-C-(2-propenyl)mycaminosyl tylonolide] | – | – | – | – | – | – | < 0.2 | 0.39 (≈ 0.611 µM) | 3.12 (≈ 4.89 µM) | < 0.2 | 3.12 (≈ 4.89 µM) | 6.25 (≈ 9.8 µM)
5 | C=CC(O)C1/C=C(C)/C=C/C(=O)C(C)CC(CC=O)C(OC2OC(C)CC(N(C)C)C2O)C(C)C(O)CC(=O)OC1CC (single isomer, unassigned) [10"F, 4'-deoxy-23-C-vinylmycaminosyl tylonolide] | – | – | – | – | – | – | < 0.2 | 0.39 (≈ 0.642 µM) | 3.12 (≈ 5.13 µM) | 0.78 (≈ 1.28 µM) | 3.12 (≈ 5.13 µM) | –
6 | C#CC(O)C1/C=C(C)/C=C/C(=O)C(C)CC(CC=O)C(OC2OC(C)CC(N(C)C)C2O)C(C)C(O)CC(=O)OC1CC (single isomer, unassigned) [12"F, 4'-deoxy-23-C-ethinylmycaminosyl tylonolide] | – | – | – | – | – | – | < 0.2 | 0.78 (≈ 1.29 µM) | 3.12 (≈ 5.15 µM) | 0.78 (≈ 1.29 µM) | 1.56 (≈ 2.58 µM) | 3.12 (≈ 5.15 µM)
7 | CCC1OC(=O)CC(O)C(C)C(OC2OC(C)CC(N(C)C)C2O)C(CC=O)CC(C)C(=O)/C=C/C(C)=C/C1C(C)O (single isomer, unassigned) [Example 5(2), 4'-deoxy-23-C-methylmycaminosyl tylonolide] | – | – | – | – | – | – | < 0.2 | 0.39 (≈ 0.655 µM) | 3.12 (≈ 5.24 µM) | 0.39 (≈ 0.655 µM) | 1.56 (≈ 2.62 µM) | 25 (≈ 42 µM)
8 | CCC1OC(=O)CC(O)C(C)C(OC2OC(C)CC(N(C)C)C2O)C(CC=O)CC(C)C(=O)/C=C/C(C)=C/C1C(C)O (single isomer, unassigned) [Example 6, 4'-deoxy-23-C-methymycaminosyl tylonolide] | <0.2 | 0.39 (≈ 0.655 µM) | 3.12 (≈ 5.24 µM) | 0.39 (≈ 0.655 µM) | 3.12 (≈ 5.24 µM) | 12.5 (≈ 21 µM) | – | – | – | – | – | –
9 | C#CC(O)C1C=C(C)C=CC(=O)C(C)CC(CC=O)C(OC2OC(C)C(O)C(N(C)C)C2O)C(C)C(O)CC(=O)OC1CC (centres unmarked) [11"F, 23-C-ethinylmycaminosyl tylonolide] | <0.2 | 3.12 (≈ 5.02 µM) | 3.12 (≈ 5.02 µM) | 1.56 (≈ 2.51 µM) | 3.12 (≈ 5.02 µM) | 6.25 (≈ 10.1 µM) | – | – | – | – | – | –
10 | CC[C@H]1OC(=O)C[C@@H](O)[C@H](C)[C@@H](O[C@@H]2O[C@H](C)C[C@H](N(C)C)[C@H]2O)[C@@H](CC=O)C[C@@H](C)C(=O)/C=C/C(C)=C/[C@@H]1CO [DT, 4'deoxy mycaminosyl/ tylonolide, reference compound] | <0.2 | 1.56 (≈ 2.68 µM) | 1.56 (≈ 2.68 µM) | 0.39 (≈ 0.67 µM) | 1.56 (≈ 2.68 µM) | 12.5 (≈ 21.5 µM) | – | – | – | – | – | –
11 | CC[C@H]1OC(=O)C[C@@H](O)[C@H](C)[C@@H](O[C@@H]2O[C@H](C)[C@@H](O)[C@H](N(C)C)[C@H]2O)[C@@H](CC=O)C[C@@H](C)C(=O)/C=C/C(C)=C/[C@@H]1CO [MT, mycaminosyl tylonolide] | <0.2 | 3.12 (≈ 5.22 µM) | 3.12 (≈ 5.22 µM) | 1.56 (≈ 2.61 µM) | 3.12 (≈ 5.22 µM) | 25 (≈ 41.8 µM) | – | – | – | – | – | –
